A short description of series [1]: EYPG vesicle leakage assay. It counts as biochemical. The settings on record: 10 μg/mL of compound; 10 mM TRIS, 107 mM NaCl, pH 7.4. The procedure: 5(6)-carboxyfluorescein (CF) was purchased from Sigma. EYPC, EYPG, and a Mini-Extruder were purchased from Avanti Polar Lipids. Egg PC or Egg PG thin lipid layers were prepared by evaporating a solution of 100 mg of EYPC or EYPG in 4 mL of MeOH/CHCl3 (1:1) on a rotary evaporator at room temperature and then dried in vacuo overnight. […] Extravesicular components were removed by gel filtration (Sephadex G-50) with 10 mM TRIS, 107 mM NaCl, pH 7.4 buffer. Final conditions: ∼2.5 mM PC or PG; inside: 50 mM CF, 10 mM TRIS, 10 mM NaCl, pH 7.4 buffer; outside: 10 mM TRIS, 107 mM NaCl, pH 7.4. […] The CF efflux was monitored at λem 517 nm (λex 492 nm) as a function of time after addition of the desired volume of peptide from 2 mg/mL stock in mQ water at t = 45 s, 10 and 50 μg/mL were monitored for both EYPC and EYPG. […] Fluorescence intensities were then normalized to the maximal emission intensity using I(t) = (It – I0)/(I∞ – I0) where I0 = It at peptide addition, I∞ = It at saturation of lysis.

The test system of series [2] is K. pneumoniae NCTC418. To be noted: MH broth pH 7.4, 16–20 h, 37 °C. The gist of the method:
(§1)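 Growth inhibition is judged by eye after MTT addition, the MIC being the lowest compound concentration whose well stays yellow. Bacteria from overnight LB cultures are diluted in MH medium at pH 7.4 to roughly 5 × 10^5 CFU and incubated with doubling dilutions at 37 °C, unshaken, 16–20 h.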

Series [3] concerns Pseudomonas aeruginosa, Klebsiella pneumoniae, Acinetobacter baumannii, Escherichia coli, and methicillin-resistant Staphylococcus aureus. The settings on record: summary of Table 1. The gist of the method:
as §1

Series [4] relates to A. baumannii ATCC19606. The gist of the method: as §1
Series [5] relates to S. aureus COL MRSA. The gist of the method: as §1
Series [6] relates to E. coli W3110. The gist of the method: as §1
In series [7] the test system is P. aeruginosa PAO1. The essentials: as §1
The nature of series [8]: CD spectroscopy, α-helix content. It counts as physicochemical. To be noted: 5 mM DPC in 7 mM PB buffer pH 7.4, Dichroweb Contin LL set 4. The procedure: CD experiments were measured on a Jasco J-715 spectropolarimeter. All the experiments were performed using Hellma Suprasil 110-QS 0.1 cm cuvettes. For each peptide, the measurements were performed in phosphate buffer (PB, pH = 7.4, 7 mM), 10% TFE, 20% TFE, 5 mM DPC. The buffer was degassed for 10 min under high vacuum before each set of experiments. The concentration of the peptides was 0.100 mg/mL, and each sample was measured in one accumulation. The scan rate was 20 nm/min, pitch was 0.5 nm, response was 16 s, and bandwidth was 1.0 nm. The nitrogen flow was kept >8 L/min. After each measurement, the cuvettes were washed successively with milli-Q H2O and PB (pH 7.4). The baseline was recorded under the same conditions and subtracted manually. Primary CD spectra were analyzed using DichroWeb[58] and Contin-LL method (set 4).[74]

Series [9] can be described thus: EYPC vesicle leakage assay. It counts as biochemical. The settings on record: 10 μg/mL of compound; 10 mM TRIS, 107 mM NaCl, pH 7.4. The gist of the method:
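Egg PC or egg PG vesicles (~2.5 mM lipid) were loaded with 50 mM CF in 10 mM TRIS pH 7.4, with 10 mM TRIS/107 mM NaCl outside. Peptide at 10 or 50 μg/mL was added at 45 s, and CF efflux was followed at λex 492/λem 517 nm, normalized to complete lysis.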

Series [10] concerns human red blood cells. The experiment in a line: Hemolysis assay (MHC). The protocol: To determine the MHC stock solutions, 8 mg/mL peptide in PBS (pH 7.4) was prepared, and 50 μL was diluted serially by l/2 in 50 μL of PBS (pH 7.4) in a 96-well plate (Costar or Nunc, polystyrene, untreated). […] Plasma was discarded, and the pellet was re-suspended in a 15 mL Falcon tube in 5 mL of PBS. The washing was repeated three times, and the remaining pellet was re-suspended in 10 mL of PBS. The hRBC suspension (50 μL) was added to each well, and the plate was incubated at room temperature for 4 h. MHC end points were determined by visual determination of the wells after the incubation period. Controls on each plate included a blank medium control (50 μL PBS + 50 μL of hRBCs suspension) and a hemolytic activity control (mQ-deionized water 50 μL + 50 μL hRBC suspension).

[11] abbreviates: MH broth pH 7.4, 16–20 h, 37 °C.

SMILES strings stand for the structures. Like-named read-outs stand apart in the source and are kept apart here. Non-standard residues stand in square brackets, D forms with d. Residues, ends and D or L forms follow the SMILES beside them.

Turning to `CC(C)C[C@H](NC(=O)[C@H](CC(C)C)NC(=O)[C@H](CC(C)C)NC(=O)[C@@H](CCCCN)NC(=O)[C@H](CC(C)C)NC(=O)[C@H](CC(C)C)NC(=O)[C@@H](CCCCN)NC(=O)[C@H](CC(C)C)NC(=O)[C@H](CC(C)C)NC(=O)[C@@H](CCCCN)NC(=O)[C@@H](CCCCN)NC(=O)[C@H](CC(C)C)NC(=O)[C@H](CC(C)C)NC(=O)[C@H](CC(C)C)NC(=O)[C@@H](CCCCN)NC(=O)[C@H](CC(C)C)NC(=O)[C@H](CC(C)C)NC(=O)[C@@H](CCCCN)NC(=O)[C@H](CC(C)C)NC(=O)[C@H](CC(C)C)NC(=O)[C@@H](CCCCN)NC(=O)[C@H](N)CCCCN)C(N)=O` [2ln69, (kkLLkLLkLLL)2] (H-[dK][dK]LL[dK]LL[dK]LLL[dK][dK]LL[dK]LL[dK]LLL-NH2), the “EYPG vesicle leakage (%)” value in series [1] is 71%. The “MIC K. pneumoniae NCTC418” value in series [2] was more than 64 µg/mL. The “MIC, span over the five bacterial strains” value in series [3] was “entirely inactive”. For the same compound, the “MIC A. baumannii ATCC19606” value in [4] (ATCC19606) and in series [4] (setting [11]) was more than 64 µg/mL throughout. Besides, in [5] (COL), the “MIC S. aureus COL” value is more than 64 µg/mL. Further, the “MIC S. aureus COL MRSA” value in series [5] (setting [11]) is more than 64 µg/mL. Besides, the “MIC E. coli W3110” value in [6] (setting [11]) is more than 64 µg/mL; in series [6] (supplementary CSV, ranges of Table 1 given as one number), more than 64 µg/mL. Also, the “MIC P. aeruginosa PAO1” value in series [7] (setting [11]) and in series [7] (PAO1) was more than 64 µg/mL throughout. Moreover, in series [8], the “α-helix content (%)” value is 82%. Moreover, the “EYPC vesicle leakage (%)” value in series [9] is on record as 74%. For the same compound, the “MHC” value in series [10] and in series [10] (pH 7.4) was less than 15.6 µg/mL throughout.
